Here are results for 2 molecules from patent publication US20140073631A1 (priority 2012, published 2014).

≈ marks a conversion by molar mass, not a printed value.

Series [1] concerns Mtb H37Rv (SRI 1345), nonreplicating persistence. The format is cell-based, Mycobacterium tuberculosis.
The subject of series [2] is Mtb H37Rv (SRI 1345). The experiment in a line: microbe, parasite or virus in culture. The format is cell-based, Mycobacterium tuberculosis.
For series [3], the system named is uninfected J774 macrophages. Particulars: mouse.
Series [4] relates to Mtb H37Rv (SRI 1345). In words: microbe, parasite or virus in culture. Type of series: cell-based, Mycobacterium tuberculosis. The source holds these as a separate data set.
Series [5] deals with H37Rv Colorado strain. The experiment in a line: TB MIC Testing (Table 9). The format is cell-based. Particulars: Mycobacterium tuberculosis, read-out: MIC Value, Standard Test Strain H27Rv.
The next series has as its system TB. The experiment in a line: DMID TB MIC Results (Table 10). The format is cell-based. Particulars: Mycobacterium tuberculosis; solvent DMSO.
The test system of series [6] is Mtb H37Rv (SRI 1345) in murine J774 cells. The format is cell-based, Mycobacterium tuberculosis.
Series [7] deals with H37Rv Colorado strain. In words: MBC Determination with H37Rv Colorado strain (Table 9). The format is cell-based. Particulars: Mycobacterium tuberculosis; Performed with H37Rv.
The subject of another series is F. tularensis SCHU S4. More on the design: species or system BALB/c mice. Particulars: mouse, in vivo.
A further series deals with Y. pestis C092. Type of series: in vivo, BALB/c mice. Conditions: 21 days.

The % inhibition is the change of the read-out against control, counted positive when it falls. A lower % inhibition goes with little suppression. For `CO[C@H]1/C=C/O[C@@]2(C)Oc3c(C)c(O)c4c(O)c(c(/C=N/N5CCN(C)CC5)c(O)c4c3C2=O)NC(=O)/C(C)=C\C=C\[C@H](C)[C@H](O)[C@@H](C)[C@@H](O)[C@@H](C)[C@H](OC(C)=O)[C@@H]1C` [Rifampin, rifampin, reference compound], in [1], the LORA turned out to be 1.56 µg/mL. The “% inhibition at the MIC concentration” value in the series on Mtb H37Rv (SRI 1345) [2] is given as 81%. Further, in the series on Mtb H37Rv (SRI 1345) [2] (Mycobacterium tuberculosis, H37RV, 168 h, read-out: MIC H37Rv), the MIC amounted to 49 ng/mL (≈ 59.5 nM). In series [3], the “MTT % viability (high conc.)” value is 86%, the “MTT % viability (low conc.)” value turned out to be 97% and the “MTT % viability (mid conc.)” value came out at 96%. Also, the “Colony Count” value with Mtb H37Rv (SRI 1345) [4] is 23 CFU. The same molecule showed an MBC against Mtb H37Rv (SRI 1345) [4] (Mycobacterium tuberculosis, H37RV) of 3120 ng/mL (≈ 3800 nM). Besides, in the series with H37Rv Colorado strain [5], the MIC turned out to be 3.1 ng/mL (≈ 3.77 nM). This molecule gave an MIC in the series on TB of 6 ng/mL (≈ 7.29 nM). In series [6], the “Microphage log reduction (high conc.)” value worked out at 2.00, the “Microphage log reduction (low conc.)” value came out at 0.76 and the “Microphage log reduction (mid conc.)” value came to 1.11. The MBC with H37Rv Colorado strain [7] turned out to be 6.3 ng/mL (≈ 7.66 nM).

As to `C[C@H]1COc2c(N3CCN(C)CC3)c(F)cc3c(=O)c(C(=O)O)cn1c23` [Levofloxacin, reference compound], the survival in the series with F. tularensis SCHU S4 was found to be 100%; with Y. pestis C092, 88.9%.
